The text below walks through data of PMC8230303, “Coumarin-Based Triapine Derivatives and Their Copper(II) Complexes: Synthesis, Cytotoxicity and mR2 RNR Inhibition Activity” (Biomolecules, 2021).

In one data set the test system is COLO-205 cells. In words: Inhibition of cell viability, colorimetric MTT assay. Format: cell-based. Particulars: Homo sapiens, 72 h exposure, mean ± SD. As to the method: (§1) Human breast adenocarcinoma cells MDA-MB-231, sensitive COLO-205 and multidrug resistant COLO-320 colorectal adenocarcinoma cells and normal human lung fibroblasts MRC-5 were obtained from ATCC. COLO-205 and COLO-320 cells were cultured in RPMI-1640 medium containing 10% foetal bovine serum, MRC-5 cells were cultured in EMEM medium containing 10% foetal bovine serum. MDA-MB-231 cells were cultured in DMEM/high glucose medium containing 10% FBS. Adherent MDA-MB-231 cells were grown in Falcon tissue culture 75 cm^2 flasks and all other cells were grown in tissue culture 25 cm^2 flasks (BD Biosciences, Singapore). All cell lines were grown at 37 °C in a humidified atmosphere of 95% air and 5% CO2. The stock solutions of copper(II) complexes were prepared in DMSO.
(§2) The cytotoxicity of the compounds was determined by colorimetric MTT assay. The cells were harvested from culture flasks by trypsinisation and seeded into Cellstar 96-well microculture plates at the seeding density of 6000 cells per well (6 × 10^4 cells/mL, MDA-MB-231) or 10,000 cells per well (1× 10^5 cells/mL cells/mL, COLO-205, COLO-320 and MRC-5). The cells were allowed to resume exponential growth for 24 h, and subsequently were exposed to drugs at different concentrations in media for 72 h. The drugs were diluted in complete medium at the desired concentration and added to each well (100 µL) and serially diluted to other wells. After exposure for 72 h, the media were replaced with MTT in media (5 mg/mL, 100 µL) and incubated for additional 50 min. Subsequently, the media were aspirated and the purple formazan crystals formed in viable cells were dissolved in DMSO (100 µL). Optical densities were measured at 570 nm using the BioTek H1 Synergy (BioTek, Singapore) microplate reader. The quantity of viable cells was expressed in terms of treated/control (T/C) values in comparison to untreated control cells, and 50% inhibitory concentrations (IC50) were calculated from concentration-effect curves by interpolation. Evaluation was based on at least three independent experiments, each comprising six replicates per concentration level.
For orientation: Formazan colour is commonly taken as a measure of viable cells.

Data set [1] concerns MDA-MB-231 cells. Described as above. It counts as cell-based. Particulars: Homo sapiens, 72 h exposure, mean ± SD. How it is done:
as §1, §2

A further data set deals with MRC-5 cells. The data set is described as above. Format: cell-based. Particulars: Homo sapiens, MRC5, healthy lung fibroblasts, 72 h exposure, mean ± SD. As to the method: as §1, §2
The test system of another data set is COLO-320 cells. The data set is described as above. The following applies: for IC50: Homo sapiens, COLO 320, MTT assay, 72 h exposure, mean ± SD. Format: cell-based, human. How it is done:
as §1, §2

The subject of data set [2] is MDA-MB-231 cells. Also noted: method as in PMID 30384010. The following applies: cited from earlier work.
Another data set deals with T1, mouse R2 RNR protein (Mus musculus, UniProt P11157).
T1 construct: mR2 protein was expressed, purified, and iron-reconstituted as described previously; made in house
T1 sequence (P11157 1-390): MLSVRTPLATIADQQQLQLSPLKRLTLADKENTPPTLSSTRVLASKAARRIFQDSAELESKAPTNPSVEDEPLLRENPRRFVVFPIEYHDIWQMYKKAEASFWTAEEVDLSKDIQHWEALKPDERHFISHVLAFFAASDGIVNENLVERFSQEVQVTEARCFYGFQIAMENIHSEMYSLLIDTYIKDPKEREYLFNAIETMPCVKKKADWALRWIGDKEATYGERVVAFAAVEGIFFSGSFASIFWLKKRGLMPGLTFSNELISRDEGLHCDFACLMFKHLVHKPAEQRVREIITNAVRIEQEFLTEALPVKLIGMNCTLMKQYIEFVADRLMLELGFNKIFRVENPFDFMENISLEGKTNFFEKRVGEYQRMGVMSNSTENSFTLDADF
Also noted: method as in PMID 32961653. The following applies: in 3 min; cited from earlier work.

Details of data set [3]: method as in doi:10.1002/ejic.200901174. Particulars: copper(II) complex of the named ligand; cited from earlier work.

In general, IC50 refers to the point on the concentration scale where inhibition reaches its midpoint.

Structures are written as SMILES. Where two headings read alike, the source gives them in different places. Some results are limits rather than exact numbers.

In the case of `CN(C)C(=S)NN=Cc1cc(COc2ccc3cc(C(=O)N4CCN(Cc5ccnc(C=NNC(=S)N(C)C)c5)CC4)c(=O)oc3c2)ccn1` [H2L^4, 2-((4-((4-(7-((2-((2-(dimethylcarbamothioyl)hydrazineylidene)methyl)pyridin-4-yl)methoxy)-2-oxo-2H-chromene-3-carbonyl)piperazin-1-yl)methyl)pyridin-2-yl)methylene)-N,N-dimethylhydrazine-1-carbothioamide], the IC50 was 4.4 ± 0.7 µM with COLO-205 cells, 3 ± 0.3 µM with MDA-MB-231 cells [1], 4 ± 0.3 µM in the data set with MRC-5 cells and 4.6 ± 0.3 µM in the data set on COLO-320 cells. Further, in the data set with COLO-320 cells (IC50(MRC-5)/IC50(COLO-320)), the SF is on record as 0.9.
Consider `COc1cccc2c1C(=O)c1c(O)c3c(c(O)c1C2=O)C[C@@](O)(C(=O)CO)C[C@@H]3O[C@H]1C[C@H](N)[C@H](O)[C@H](C)O1` [Doxorubicin, reference compound], for which the IC50 stood at 3.3 µM in the data set on COLO-205 cells, 5.2 µM in the data set on MRC-5 cells and 3.1 µM with COLO-320 cells.
`Cc1cc(NCNN=Cc2cc(CN3CCN(C(=O)c4cc5ccc(O)cc5oc4=O)CC3)ccn2)cc(C)c1O` [HL^3, 7-Hydroxy-3-(4-((2-((2-(((4-hydroxy-3,5-dimethylphenyl)amino)methyl)hydrazineylidene)-methyl)pyridin-4-yl)methyl)piperazine-1-carbonyl)-2H-chromen-2-one]: the IC50 with COLO-205 cells was 76 ± 8 µM; in the data set with MDA-MB-231 cells [1] it was 11 ± 1 µM; with MRC-5 cells, greater than 100 µM; with COLO-320 cells it was 90 ± 10 µM.
For the molecule `NC(=S)NN=Cc1ncccc1N` [Triapine, 3-aminopyridine-2-carboxaldehyde thiosemicarbazone], the IC50 with MDA-MB-231 cells [2] was 1.5 ± 1.1 µM. Further, the tyrosyl radical reduction at mouse R2 RNR protein is 100%. Further, the “logβ[CuL]+” value in data set [3] was 13.89(3).
Turning to `CN(C)C(=S)NN=Cc1cc(CN2CCN(C(=O)c3cc4ccc(O)cc4oc3=O)CC2)ccn1` [HL^1, 2-((4-((4-(7-Hydroxy-2-oxo-2H-chromene-3-carbonyl)piperazin-1-yl)methyl)pyridin-2-yl)methylene)-N,N-dimethylhydrazine-1-carbothioamide], the IC50 worked out at 9.2 ± 0.1 µM in the data set with COLO-205 cells, 4.8 ± 1.3 µM in the data set on MDA-MB-231 cells [1], 41 ± 1 µM in the data set with MRC-5 cells and 6.7 ± 0.9 µM in the data set with COLO-320 cells.
For the molecule `O=C(c1cc2ccc(O)cc2oc1=O)N1CCN(Cc2ccnc(C=NNC(=S)Nc3ccccc3)c2)CC1` [HL^2, 2-((4-((4-(7-Hydroxy-2-oxo-2H-chromene-3-carbonyl)piperazin-1-yl)methyl)pyridin-2-yl)methylene)-N-phenylhydrazine-1-carbothioamide], the IC50 with COLO-205 cells is 89 ± 6 µM; in the data set with MDA-MB-231 cells [1], 18 ± 4 µM; in the data set on MRC-5 cells, 54 ± 5 µM; with COLO-320 cells, 83 ± 7 µM.
With `CN(C)C(=S)NN=Cc1ccccn1` [PTSC, pyridine-2-carboxaldehyde 4N-dimethylthiosemicarbazone], the “logβ[CuL]+” value in data set [3] was 13.57(2).
For `CN(C)C(=S)NN=Cc1ncccc1N` [APTSC, 3-aminopyridine-2-carboxaldehyde 4N-dimethylthiosemicarbazone], the “logβ[CuL]+” value in data set [3] is 13.95(2).
